Results published in article PMC9036655 (RSC Advances, 2021).
Values after ≈ are worked out from the molar mass of the structure shown.

Experiments:
Assay in all cases: Antibacterial spectrum test, agar double dilution MIC
Type in all cases: cell-based
[1] = system: Escherichia coli Esbls^−16-23
[2] = system: Escherichia coli Esbls^−16-24
[3] = system: Klebsiella pneumoniae Esbls^−17-11
[4] = system: Klebsiella pneumoniae Esbls^−17-12
[5] = system: Pseudomonas aeruginosa 17-2; conditions: 172
[6] = system: Escherichia coli ATCC25922

`C[C@H]1COc2c(N3CCN(C)CC3)c(F)cc3c(=O)c(C(=O)O)cn1c23` [Levofloxacin tablets, Levofloxacin] was tested, and the MIC [1] was 16 µg/mL (≈ 44.3 µM), the MIC [2] was < 0.008 µg/mL and the MIC [3] was 0.03 µg/mL (≈ 0.083 µM). For the same compound, the MIC [4] was < 0.008 µg/mL, the MIC [5] was 16 µg/mL (≈ 44.3 µM) and the MIC [6] was < 0.008 µg/mL.
